Data on 15 compounds can be found in ChEMBL document CHEMBL1138876, “An introduction of a pyridine group into the structure of prolyl oligopeptidase inhibitors” (Bioorg Med Chem Lett, 2006).

Converted amounts (≈) assume the structure as drawn.

The term pKa denotes the pH at which an ionisable group is half protonated. As a reminder, the IC50 is the concentration needed to halve the response being measured. Low values mean inhibition by little substance, high ones a need for much substance. One may read the logP as a log measure of how a compound divides between an organic and an aqueous phase. Higher therefore signals a more lipophilic compound. In general, solubility refers to the concentration that dissolves in the medium under given conditions. Read a high solubility as a readily soluble substance.

Data set [1] can be described thus: Dissociation constant, pKa of the compound. Type of data set: physicochemical.
The nature of data set [2]: Inhibition of POP in pig brain. Details: species or system Sus scrofa.
A short description of data set [3]: Partition co-efficient, log P by pH metric titration. The settings on record: octanol/water. Type of data set: physicochemical.
Data set [4] in a line: Solubility in phosphate buffer at pH 7.4. It counts as physicochemical.
A short description of data set [5]: Partition co-efficient, log P by shake-flask method. The settings on record: octanol/water. It counts as physicochemical.

As to `O=C(NCCc1ccccn1)C1=CCCC1C(=O)N1CCCC1` (stereo not drawn), the pKa in data set [1] amounted to 4.4. Moreover, the concentration for half-maximal inhibition (IC50) in data set [2] turned out to be 5.2 nM. This compound also displayed a logP in data set [3] of 0.6.
Take `O=C([C@@H]1CCCN1C(=O)CCc1cccnc1)N1CCCC1`: in data set [2], the IC50 is 30 nM. Further, the logP in data set [3] is 0.3.
For the compound `O=C([C@@H]1CCCN1C(=O)CCCc1ccccc1)N1CCCC1`, the solubility in data set [4] was over 6000 µg/mL.
In the case of `O=C(NCc1ccncc1)C1=CCCC1C(=O)N1CCCC1` (stereo not drawn), the pKa in data set [1] worked out at 4.4. Besides, half-maximal inhibition in data set [2] (IC50) was put at 19 nM. The same compound displayed a logP in data set [3] of 0.4.
For `CC(C)(C)[C@H]1CC[C@@H](C(=O)N2CCCC2)N1C(=O)CCCc1cccnc1`, the solubility in data set [4] is over 6000 µg/mL. Further, the IC50 in data set [2] came out at 2.1 nM. Moreover, the logP in data set [3] was 2.
As to `O=C([C@@H]1CCCN1C(=O)Cc1cccnc1)N1CCCC1`, the IC50 in data set [2] came to 56 nM. In data set [3], this compound displayed a logP of -0.2.
The matching figures for `O=C([C@@H]1CCCN1C(=O)c1cccnc1)N1CCCC1`: 44 nM and -0.3.
On to `O=C(NCc1ccccc1)C1=CCCC1C(=O)N1CCCC1` (stereo not drawn), for which, in data set [4], the solubility stood at 3000 µg/mL (≈ 10.1 mM). The compound further gave an IC50 in data set [2] of 9 nM. The logP in data set [5] turned out to be 1.6.
On to `CC(C)(C)[C@H]1CC[C@@H](C(=O)N2CCCC2)N1C(=O)CCc1cccnc1`, for which the IC50 in data set [2] came out at 13 nM. The compound further gave a logP in data set [3] of 1.8.
Regarding `O=C(NCc1ccccn1)C1=CCCC1C(=O)N1CCCC1` (stereo not drawn), in data set [1], the pKa worked out at 4.4. Also, in data set [2], it took 24 nM to reach half-maximal inhibition (IC50). Besides, in data set [3], the logP amounted to 0.3.
With `O=C(NCCc1ccccc1)C1=CCCC1C(=O)N1CCCC1` (stereo not drawn), the IC50 in data set [2] worked out at 1.5 nM. Also, the logP in data set [5] was 1.9.
In data set [1], `O=C(NCCc1cccnc1)C1=CCCC1C(=O)N1CCCC1` (stereo not drawn) displayed a pKa of 4.4. Also, 2.2 nM corresponded to half-maximal inhibition in data set [2] (IC50). In addition, the logP in data set [3] worked out at 0.6.
The matching figures for `O=C(NCCc1ccncc1)C1=CCCC1C(=O)N1CCCC1` (stereo not drawn): 4.4, 4.8 nM and 0.5.
Consider `O=C(NCc1cccnc1)C1=CCCC1C(=O)N1CCCC1` (stereo not drawn), for which the solubility in data set [4] is over 6000 µg/mL. Further, the pKa in data set [1] stood at 4.4. In data set [2], this compound registered an IC50 of 9.7 nM. In data set [3], this compound showed a logP of 0.4.
Compound `CC(C)(C)[C@H]1CC[C@@H](C(=O)N2CCCC2)N1C(=O)CCCc1ccccc1` displayed a solubility in data set [4] of 900 µg/mL (≈ 2.43 mM). The same compound yielded a logP in data set [5] of 3.3.
